Data reported in BindingDB's records for doi:10.1016/j.bmcl.2011.04.103 (University of Strasburg, 2011).

Test: Inhibition of N-terminal SHH activated pathway in mouse C3H10T1/2 cells assessed as SAG-induced cell differentiation by alkaline phosphatase assay

SMILES	IC50
COc1cccc(CN(C(=O)CC(C)(C)C)[C@H]2C[C@@H](C(=O)N3CCNCC3)N(Cc3ccc4c(c3)OCO4)C2)c1 [N-((3S,5S)-1-(benzo[d][1,3]dioxol-5-ylmethyl)-5-(piperazine-1-carbonyl)pyrrolidin-3-yl)-N-(3-methoxybenzyl)-3,3-dimethylbutanamide]	300 nM
C[C@H]([C@@H]1CCCCN1)[C@H]1CC[C@H]2[C@@H]3CC=C4C[C@@H](O)CC[C@]4(C)[C@H]3CC[C@]12C	3200 nM
CC1=C2C[C@H]3[C@@H](CC=C4C[C@@H](O)CC[C@@]43C)[C@@H]2CC[C@]12O[C@@H]1C[C@H](C)CN[C@H]1[C@H]2C	600 nM
